Data from the METLIN SMRT retention time set (Domingo-Almenara et al. 2019).

Assay: gradient 5% acetonitrile 3 min, to 50% in 2 min, to 85% in 15 min, held 3 min, 100 µL/min
Conditions: column: Zorbax Extend-C18 2.1 x 50 mm; eluents: water / acetonitrile, 0.1% formic acid
Method in brief: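 Mixtures of ~100 pure standards were chromatographed on a Zorbax Extend-C18 column (2.1 × 50 mm, 1.8 μm) at 100 μL/min using water and acetonitrile, each with 0.1% formic acid. Detection used a quadrupole time-of-flight mass spectrometer in positive and negative ionization mode, and data collection spanned 3 months. Retention time was obtained from adduct peaks picked computationally and each checked manually.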

Compound	RP-LC retention time [s]
CCc1ccccc1NS(=O)(=O)c1cc(-c2c(CC)noc2NC(C)=O)ccc1C	855
CCc1nn2c(CNS(=O)(=O)c3cc(F)cc(F)c3)c(-c3ccccc3)nc2s1	963
CCOC(=O)c1noc2nc(C)nc(NCCCN3CCN(c4ccccc4)CC3)c12	668
Cc1ccc(-c2nc3ncccn3c2NC(=O)c2cccc(C(F)(F)F)c2)cc1	838
O=C(Nc1ccccc1)c1cn2c(n1)CCCC2	577
CCOC(=O)c1cc2n(n1)CC(C)(C(=O)NCc1ccccc1)N(Cc1ccccc1)C2=O (configuration not stated)	880
CCOC(=O)CCC(=O)NCCN1CCN(c2ccccc2)CC1	564
CCC(C)NC(=O)CCn1c(=O)c2ccccc2n2c(=O)n(Cc3ccccc3F)nc12 (configuration not stated)	884
Clc1ccc(-c2nc(N3CCCC3)c3ccccc3n2)cc1	726
CCNC(=O)[C@H]1O[C@@H](n2cnc3c(N)nc(NCCc4ccc(CCC(=O)O)cc4)nc32)C(O)[C@H]1O (some centres not stated)	503
Cc1ccc(C)c(NC(=O)c2csc(-c3cn(C)c4ncccc34)n2)c1	1110
Cc1ccc2c(c1)N(S(C)(=O)=O)CCC(C(=O)Nc1cccc(Br)c1)O2 (configuration not stated)	1060
CS(=O)(=O)N1CCCc2cc(C(=O)Nc3cccc(Br)c3)ccc21	984
O=C(NCCn1nc(-c2ccco2)ccc1=O)c1n[nH]c2ccccc12	643
CCCCNC(=O)CCCn1c(=O)c2cccn2c2ccccc21	780
Cc1cccc(NC(=O)C2CCCN(S(=O)(=O)c3c[nH]c(C(=O)N4CCCCCC4)c3)C2)c1 (configuration not stated)	922
COc1ccc(CNC(=O)Cn2cnc3nc(N4CCCC(C(=O)NC5CC5)C4)sc3c2=O)cc1 (configuration not stated)	655
CCn1cc(-c2nc(CC(=O)Nc3ccc(Cl)cc3)cs2)c2cccnc21	996
Cc1cccc2nnc(N3CCC(C(=O)NCc4ccccc4F)CC3)n12	591
COc1ccc(NC(=O)Cn2cccc2-c2nnc(-c3ccccc3)o2)cc1	894
Cc1ccc(NC(=O)N2CC(n3ccnc3)C2)cc1C	604
C=CCN1C(=O)COc2ccc(-c3csc(NC(=O)c4ccc(OC)c(OC)c4)n3)cc21	943

Compound	RP-LC retention time [s]
CC(=O)Nc1c(C)nn(-c2ccccc2)c1N1CCC(C(=O)NCCCN2CCCC2=O)CC1	605
CC(C)N1C(=O)c2cccnc2Sc2cc(NC(=O)C3CCOC3)ccc21 (configuration not stated)	680
Cc1cc2nn(CC(=O)Nc3ccc(C)c(C)c3)c(=O)n2c(-c2ccccc2)n1	868
CCc1ccc(-c2ccc(SCC(=O)Nc3cc(Cl)ccc3OC)nn2)cc1	1180
Clc1nc(Oc2ccccc2)nc(-c2cn(-c3ccccc3)c3ccccc23)n1	732
Cc1ccc(CNC(=O)N2[C@H]3CC[C@@H]2c2cncnc2C3)cc1	735
CNC(=O)c1nc(C(C)(C)NC(=O)c2ccoc2)nc2c1OCO2	624
CCn1c(=O)n(Cc2cccnc2)c(=O)c2cnc(-c3ccc(OC)cc3)nc21	762
O=C(Nc1ccc(-n2cnnn2)cc1)c1ccc(OCc2nc(C3CC3)cs2)cc1	823
Cc1ccc(-c2noc(Cn3ccnc3C)n2)cc1C	670
Cc1nnc(-c2cc3ccccc3n2CC(=O)Nc2ccc(C(F)(F)F)cc2)o1	966
CCOC(=O)c1ccc(NC(=O)C2CCCN(c3ncnc4c3nc3n4CCCCC3)C2)cc1 (configuration not stated)	873
CC(=O)N1CCCN(C2=NS(=O)(=O)C(c3ccccc3)=C2C)CC1	665
CC1CCN(c2ccc(-c3noc(CCC(=O)N4CCN(C5CCCCC5)CC4)n3)cc2)CC1	733
O=C(NCc1ccc2c(c1)OCO2)c1nnc(-c2ccc(S(=O)(=O)N3CCCCC3)cc2)o1	948
CCc1noc(NC(C)=O)c1-c1ccc(OC)c(S(=O)(=O)NCc2ccccc2OC)c1	791
CS(=O)(=O)c1ccccc1NC(=O)C1CCCCN1S(=O)(=O)c1cccs1 (configuration not stated)	837
COc1cc(C)c(C)cc1S(=O)(=O)Nc1cccc(-c2ccc(N3CCCC3)nn2)c1	607
O=C(c1ccc2c(c1)CCC(=O)N2Cc1ccccc1)N1CCN(c2ccccc2F)CC1	967
COc1ccc(NC(=O)CSc2nccnc2Oc2ccc(C)cc2)cc1OC	955
CCNc1nc(C)cc(N2CCN(S(=O)(=O)c3cc(Cl)ccc3Cl)CC2)n1	776
O=C(Cn1cccc1-c1nnc(-c2ccccc2)o1)N1CCc2ccccc2C1	986

Compound	RP-LC retention time [s]
Cc1ccc(N(C)S(=O)(=O)c2cc(-c3[nH]ncc3C(=O)N3CCCCC3)oc2C)cc1	835
COc1ccc(Cl)cc1S(=O)(=O)N1CCc2nn(C)c(=O)n2CC1	712
COc1ccc(S(=O)(=O)Cc2nc(-c3ccccc3Cl)no2)cc1	966
Cc1cc(N2CCCCC2C)n2nc(-c3ccccc3C)nc2n1 (configuration not stated)	991
COC(=O)c1c(C)[nH]c(C(=O)N2CCCC(C(=O)NCCCN3CCCC3)C2)c1C (configuration not stated)	584
CCc1ccccc1NC(=O)N1CCC(n2cnc3ccccc3c2=O)CC1	744
COc1ccc(-c2nnc(-c3ccc(C)c(S(=O)(=O)N4CCSCC4)c3)o2)cc1OC	970
c1cncc(-c2nc(-c3ccc4c(c3)nnn4CCN3CCCCC3)no2)c1	614
CCn1c(=O)c(N2CCCC(C(=O)N3CCN(c4cc(C)ccc4C)CC3)C2)nc2ccccc21 (configuration not stated)	1380
CCCOc1cn(-c2ccc(F)cc2)nc1C(=O)N1CCC(C(=O)OCC)CC1	930
Cc1ccc(S(=O)(=O)N2C(=O)CCC2C(=O)NC2CCCCCCC2)cc1C (configuration not stated)	1060
Cn1nc(C(=O)N2CCCC(C(=O)NC3CC3)C2)c2c1CCN(C(=O)Cc1cccc(F)c1)C2 (configuration not stated)	666
CCC(CC)C(=O)N1CCC(Oc2nccnc2N(C)C)C1 (configuration not stated)	749
O=c1ccc(-c2ccc3c(c2)OCO3)nn1CCc1nc(-c2ccccc2Br)no1	936
COc1ccc(CNC(=O)CS(=O)(=O)c2cccs2)cc1	676
Cc1ccc(Oc2nccn3c(=O)n(CC(=O)NC(C)CCc4ccccc4)nc23)cc1 (configuration not stated)	1080
Cc1nnc(-c2c(S(=O)(=O)NC3CCN(Cc4ccccc4)CC3)c(C)n(C)c2C)o1	602
COc1coc(C(=O)N2CCN(S(C)(=O)=O)CC2)cc1=O	548
CCOC(=O)N1CCN(C(=O)C2CCCN(c3ccc(-c4ccc(C)c(C)c4)nn3)C2)CC1 (configuration not stated)	715
Cc1cc2nn(CC(=O)NCc3ccc(F)cc3)c(=O)n2c(-c2ccccc2)n1	744
Cc1ccc(-c2cc(C(N)=O)c3ccccc3n2)cc1	784
NC(=O)C1CCN(Cc2nc(-c3ccc(N4CCOCC4)nc3)no2)CC1	563

Compound	RP-LC retention time [s]
CCCCNC(=O)c1cc(NC(=O)C2CCC2)cc2nc(C)ccc12	644
CCN1CCN(C(=O)C2CCN(S(=O)(=O)c3c(C)nn(-c4ccc(F)cc4)c3C)CC2)CC1	641
Cc1ccc(NS(=O)(=O)c2cc3n(c2)CCCNC3=O)cc1F	669
O=C(CCOc1ccccc1)NCc1ccccc1	759
Cc1ccc(C2Cn3cnc(C(=O)N4CCC(C(=O)NCCC5=CCCCC5)CC4)c3CO2)cc1 (configuration not stated)	819
CCOC(=O)COc1cc(-c2ccc(C)cc2)nc2ccc(NC(=O)c3ccco3)cc12	778
Cc1ccccc1C(=O)Nc1nc(-c2ccc3c(c2)N(C)C(=O)CO3)cs1	939
O=C(c1cncc(Br)c1)N1CCCC(c2nnc(-c3ccccc3)o2)C1 (configuration not stated)	777
O=C(c1nc(-c2cccs2)cs1)N1CCCC1	935
COc1cccc(-c2noc(C3CCCN3C(=O)Nc3ccccc3C)n2)c1 (configuration not stated)	877
O=C(Nc1ccccc1C(F)(F)F)N1CCN(c2nc3c(F)cc(F)cc3s2)CC1	942
O=C(O)c1nnn(-c2ccc(Cl)cc2)c1C(F)(F)F	828
COc1ccccc1-c1cc(C(=O)N2CCCN(c3ccc(=O)n(-c4ccccc4)n3)CC2)[nH]n1	750
O=C(Cc1nnc(-c2ccc3ncccc3c2)o1)NCc1ccc(F)cc1Cl	752
O=C(COc1cccc2ccc(N3CCOCC3)nc12)NCC1CCCO1 (configuration not stated)	564
O=C(Cc1nnc(-c2ccc3ncccc3c2)o1)Nc1cccc(Cl)c1	768
CC(C)Cc1ccc(S(=O)(=O)N2CC(c3nc(-c4ccncc4)nn3C)C2)cc1	787
COc1ccc(F)cc1S(=O)(=O)Nc1ccc(CC(=O)NCC(F)(F)F)cc1	869
CCc1nc2cc(-c3noc(-c4cccc(F)c4)n3)ccc2o1	1230
CCOC(=O)c1cccc(Nc2c(-c3ccc(C)cc3)nc3cnccn23)c1	941
O=C1CC(C(=O)N2CCN(Cc3ccccc3)CC2)CN1CCc1ccccc1 (configuration not stated)	740
